Measurements reported in paper PMC2748165 (Biochemical pharmacology, 2009).

How the values were obtained:
[1] = dual perfusion of human placental lobule; cited from earlier work
P-gp [2] = target: T1, P-gp (Homo sapiens, UniProt P08183); experiment: in vitro
[3] = system: P-gp of CEM leukemia cells; conditions: cited from earlier work
P-gp [4] = target: T1, P-gp; format: biochemical
P-gp [5] = target: T1, P-gp; experiment: Inhibition of [3H]-paclitaxel uptake by placental inside-out vesicles
[6] = placental IOVs 0.05 mg/mL, 20–500 nM [3H] paclitaxel, n = 10, mean ± SEM

T1 sequence (P08183 whole entry): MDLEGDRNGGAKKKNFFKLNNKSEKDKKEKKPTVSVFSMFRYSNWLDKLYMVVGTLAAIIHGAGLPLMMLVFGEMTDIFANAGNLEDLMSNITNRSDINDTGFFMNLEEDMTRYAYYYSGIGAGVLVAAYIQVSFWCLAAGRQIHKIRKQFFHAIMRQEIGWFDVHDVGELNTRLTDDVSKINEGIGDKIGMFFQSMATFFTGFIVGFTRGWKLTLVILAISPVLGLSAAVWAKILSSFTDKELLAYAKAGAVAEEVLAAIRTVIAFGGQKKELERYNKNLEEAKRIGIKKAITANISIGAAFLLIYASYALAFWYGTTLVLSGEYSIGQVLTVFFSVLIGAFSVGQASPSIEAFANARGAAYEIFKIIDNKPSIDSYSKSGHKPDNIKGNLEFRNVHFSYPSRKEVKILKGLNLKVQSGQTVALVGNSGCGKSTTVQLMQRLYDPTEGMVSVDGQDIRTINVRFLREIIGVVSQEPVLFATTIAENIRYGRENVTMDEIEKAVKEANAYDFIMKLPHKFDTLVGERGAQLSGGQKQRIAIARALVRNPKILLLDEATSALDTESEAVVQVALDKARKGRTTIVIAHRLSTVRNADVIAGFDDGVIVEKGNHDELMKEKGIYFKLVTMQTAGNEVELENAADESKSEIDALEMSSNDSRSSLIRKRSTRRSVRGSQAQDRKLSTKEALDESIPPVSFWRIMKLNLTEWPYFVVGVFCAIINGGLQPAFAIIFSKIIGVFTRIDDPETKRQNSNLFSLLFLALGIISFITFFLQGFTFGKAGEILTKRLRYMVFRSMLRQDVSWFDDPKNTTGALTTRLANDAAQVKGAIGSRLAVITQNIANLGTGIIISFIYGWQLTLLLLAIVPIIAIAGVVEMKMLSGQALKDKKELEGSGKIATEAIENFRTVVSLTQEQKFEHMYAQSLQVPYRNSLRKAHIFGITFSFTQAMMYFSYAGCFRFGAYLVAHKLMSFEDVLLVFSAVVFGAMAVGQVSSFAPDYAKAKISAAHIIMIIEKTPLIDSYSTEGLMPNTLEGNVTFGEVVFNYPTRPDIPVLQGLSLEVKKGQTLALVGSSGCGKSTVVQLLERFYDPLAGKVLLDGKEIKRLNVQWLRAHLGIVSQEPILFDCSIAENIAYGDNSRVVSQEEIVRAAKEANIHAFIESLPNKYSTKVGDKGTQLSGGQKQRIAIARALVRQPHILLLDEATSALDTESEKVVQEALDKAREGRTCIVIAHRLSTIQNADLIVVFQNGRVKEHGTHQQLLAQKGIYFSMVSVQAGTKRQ

For `CCC(=O)C(CC(C)N(C)C)(c1ccccc1)c1ccccc1` (stereo not drawn) [methadone], the “rate of transfer from the maternal to fetal circuit” value [1] is given as 29.4 ± 4.6% and the inhibition at 1 min (P-gp [2]) is given as 60%.

In the case of `CC(=O)O[C@H]1C(=O)[C@@]2(C)[C@H]([C@H](OC(=O)c3ccccc3)[C@]3(O)C[C@H](OC(=O)[C@H](O)[C@@H](NC(=O)c4ccccc4)c4ccccc4)C(C)=C1C3(C)C)[C@]1(OC(C)=O)CO[C@@H]1C[C@@H]2O` [paclitaxel], the “apparent Kt of paclitaxel transport, CEM cells overexpressing P-gp” value ([3]; cells passaged in vinblastine, multidrug resistant, overexpressing P-gp) is listed as 63 ± 46 nM, the “Kt of paclitaxel transport, parental CEM cells” value ([3]; parental cells) is listed as 144 ± 56 nM and the “ATP dependent uptake of [3H]-paclitaxel into IOVs, mean” value (P-gp [4]; 200 individual placentas, mean) is listed as 23 pmol*mg protein^−1min^−1. The “ATP dependent uptake of [3H]-paclitaxel into IOVs, range” value (P-gp [4]; 200 individual placentas, range) was 1–140 pmol*mg protein^−1min^−1, the “Vmax of ATP-dependent [3H] paclitaxel uptake” value (P-gp [4]; [6]) was 20 ± 3 pmol*mg protein^−1min^−1 and the “apparent Kt of ATP-dependent [3H] paclitaxel uptake” value (P-gp [4]; [6]) was 66 ± 38 nM.

`COc1ccc(CCN(C)CCCC(C#N)(c2ccc(OC)c(OC)c2)C(C)C)cc1OC` (stereo not drawn) [verapamil] gave an inhibition at 1 min, 2 mM (P-gp [5]) of 99 ± 9%.
